Data from ChEMBL document CHEMBL5291721, “A preclinical secondary pharmacology resource illuminates target-adverse drug reaction associations of marketed drugs” (Nat Commun, 2023).

Columns and labels:
[1] = target: Sodium-dependent noradrenaline transporter (Homo sapiens, UniProt P23975)
[2] = target: Prostaglandin G/H synthase 1 (Homo sapiens, UniProt P23219); assay type: functional
Estrogen receptor = target: T1, Estrogen receptor (Homo sapiens, UniProt P03372)
T1 sequence (P03372 whole entry): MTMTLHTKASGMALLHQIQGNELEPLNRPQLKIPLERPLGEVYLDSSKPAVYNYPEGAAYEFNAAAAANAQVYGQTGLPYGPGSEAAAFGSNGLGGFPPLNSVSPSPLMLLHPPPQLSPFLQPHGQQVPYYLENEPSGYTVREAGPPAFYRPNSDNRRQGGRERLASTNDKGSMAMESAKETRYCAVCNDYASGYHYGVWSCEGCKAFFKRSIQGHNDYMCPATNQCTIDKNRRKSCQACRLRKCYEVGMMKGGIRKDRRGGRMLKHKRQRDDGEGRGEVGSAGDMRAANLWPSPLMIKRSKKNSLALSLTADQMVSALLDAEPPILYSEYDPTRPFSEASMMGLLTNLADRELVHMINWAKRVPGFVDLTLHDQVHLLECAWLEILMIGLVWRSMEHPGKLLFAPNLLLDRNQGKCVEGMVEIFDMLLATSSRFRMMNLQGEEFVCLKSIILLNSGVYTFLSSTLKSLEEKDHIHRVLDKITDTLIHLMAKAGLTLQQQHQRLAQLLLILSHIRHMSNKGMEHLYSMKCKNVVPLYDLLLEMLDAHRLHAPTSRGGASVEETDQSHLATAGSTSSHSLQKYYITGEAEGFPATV

Histamine H2 receptor = Histamine H2 receptor (Homo sapiens, UniProt P25021); assay type: functional, cell-based
Histamine H2 receptor, sequence (P25021 whole entry): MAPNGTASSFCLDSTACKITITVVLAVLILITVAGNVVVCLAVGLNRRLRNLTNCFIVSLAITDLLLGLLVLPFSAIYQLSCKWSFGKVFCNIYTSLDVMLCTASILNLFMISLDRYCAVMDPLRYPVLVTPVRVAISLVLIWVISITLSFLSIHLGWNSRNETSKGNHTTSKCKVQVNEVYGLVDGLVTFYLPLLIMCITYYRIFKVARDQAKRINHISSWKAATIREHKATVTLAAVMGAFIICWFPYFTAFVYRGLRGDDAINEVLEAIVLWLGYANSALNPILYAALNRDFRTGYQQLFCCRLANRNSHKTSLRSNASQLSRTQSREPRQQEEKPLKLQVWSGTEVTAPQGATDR

Thromboxane A2 receptor [3] = target: T2, Thromboxane A2 receptor (Homo sapiens, UniProt P21731); assay type: functional, cell-based
T2 sequence (P21731 whole entry): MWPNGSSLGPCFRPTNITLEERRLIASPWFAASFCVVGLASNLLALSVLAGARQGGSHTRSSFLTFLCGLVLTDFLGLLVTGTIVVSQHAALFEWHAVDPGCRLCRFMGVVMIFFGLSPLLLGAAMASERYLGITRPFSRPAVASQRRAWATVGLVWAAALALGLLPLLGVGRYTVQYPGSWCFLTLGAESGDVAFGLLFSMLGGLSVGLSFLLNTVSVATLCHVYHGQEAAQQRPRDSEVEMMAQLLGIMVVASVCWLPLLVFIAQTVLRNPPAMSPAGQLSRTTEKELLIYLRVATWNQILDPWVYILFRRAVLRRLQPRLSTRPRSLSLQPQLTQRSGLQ

Histamine H3 receptor = Histamine H3 receptor (Homo sapiens, UniProt Q9Y5N1)
Histamine H3 receptor, sequence (Q9Y5N1 whole entry): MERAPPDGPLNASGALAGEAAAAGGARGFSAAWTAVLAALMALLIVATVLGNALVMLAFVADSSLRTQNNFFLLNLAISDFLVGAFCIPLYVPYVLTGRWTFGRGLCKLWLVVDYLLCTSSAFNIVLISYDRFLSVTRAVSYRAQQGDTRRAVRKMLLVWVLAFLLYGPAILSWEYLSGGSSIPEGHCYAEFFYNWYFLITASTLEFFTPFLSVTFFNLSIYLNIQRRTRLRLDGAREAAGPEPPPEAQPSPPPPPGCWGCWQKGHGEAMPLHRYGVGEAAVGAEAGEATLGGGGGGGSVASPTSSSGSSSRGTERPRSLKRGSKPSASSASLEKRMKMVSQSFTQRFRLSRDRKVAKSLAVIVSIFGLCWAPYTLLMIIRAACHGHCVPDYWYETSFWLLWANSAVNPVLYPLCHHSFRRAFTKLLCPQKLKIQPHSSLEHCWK

Thromboxane A2 receptor [4] = target: T2, Thromboxane A2 receptor
Cannabinoid receptor 1 = Cannabinoid receptor 1 (Homo sapiens, UniProt P21554)
Cannabinoid receptor 1, sequence (P21554 whole entry): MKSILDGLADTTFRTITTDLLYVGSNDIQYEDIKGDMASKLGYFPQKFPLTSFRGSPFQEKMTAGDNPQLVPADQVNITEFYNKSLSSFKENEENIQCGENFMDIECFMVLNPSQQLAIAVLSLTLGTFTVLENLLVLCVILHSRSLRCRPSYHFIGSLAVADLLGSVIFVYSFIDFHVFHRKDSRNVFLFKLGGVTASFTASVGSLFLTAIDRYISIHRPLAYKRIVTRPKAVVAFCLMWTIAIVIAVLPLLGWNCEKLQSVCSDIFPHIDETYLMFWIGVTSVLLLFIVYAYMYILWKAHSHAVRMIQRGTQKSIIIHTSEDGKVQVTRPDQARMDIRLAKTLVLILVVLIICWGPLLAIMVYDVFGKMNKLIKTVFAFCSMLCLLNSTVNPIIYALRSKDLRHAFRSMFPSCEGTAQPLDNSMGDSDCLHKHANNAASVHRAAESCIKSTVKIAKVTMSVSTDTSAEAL

[5] = target: Vascular endothelial growth factor receptor 2 (Homo sapiens, UniProt P35968); assay type: functional
Vascular endothelial growth factor receptor 2, sequence (P35968 whole entry): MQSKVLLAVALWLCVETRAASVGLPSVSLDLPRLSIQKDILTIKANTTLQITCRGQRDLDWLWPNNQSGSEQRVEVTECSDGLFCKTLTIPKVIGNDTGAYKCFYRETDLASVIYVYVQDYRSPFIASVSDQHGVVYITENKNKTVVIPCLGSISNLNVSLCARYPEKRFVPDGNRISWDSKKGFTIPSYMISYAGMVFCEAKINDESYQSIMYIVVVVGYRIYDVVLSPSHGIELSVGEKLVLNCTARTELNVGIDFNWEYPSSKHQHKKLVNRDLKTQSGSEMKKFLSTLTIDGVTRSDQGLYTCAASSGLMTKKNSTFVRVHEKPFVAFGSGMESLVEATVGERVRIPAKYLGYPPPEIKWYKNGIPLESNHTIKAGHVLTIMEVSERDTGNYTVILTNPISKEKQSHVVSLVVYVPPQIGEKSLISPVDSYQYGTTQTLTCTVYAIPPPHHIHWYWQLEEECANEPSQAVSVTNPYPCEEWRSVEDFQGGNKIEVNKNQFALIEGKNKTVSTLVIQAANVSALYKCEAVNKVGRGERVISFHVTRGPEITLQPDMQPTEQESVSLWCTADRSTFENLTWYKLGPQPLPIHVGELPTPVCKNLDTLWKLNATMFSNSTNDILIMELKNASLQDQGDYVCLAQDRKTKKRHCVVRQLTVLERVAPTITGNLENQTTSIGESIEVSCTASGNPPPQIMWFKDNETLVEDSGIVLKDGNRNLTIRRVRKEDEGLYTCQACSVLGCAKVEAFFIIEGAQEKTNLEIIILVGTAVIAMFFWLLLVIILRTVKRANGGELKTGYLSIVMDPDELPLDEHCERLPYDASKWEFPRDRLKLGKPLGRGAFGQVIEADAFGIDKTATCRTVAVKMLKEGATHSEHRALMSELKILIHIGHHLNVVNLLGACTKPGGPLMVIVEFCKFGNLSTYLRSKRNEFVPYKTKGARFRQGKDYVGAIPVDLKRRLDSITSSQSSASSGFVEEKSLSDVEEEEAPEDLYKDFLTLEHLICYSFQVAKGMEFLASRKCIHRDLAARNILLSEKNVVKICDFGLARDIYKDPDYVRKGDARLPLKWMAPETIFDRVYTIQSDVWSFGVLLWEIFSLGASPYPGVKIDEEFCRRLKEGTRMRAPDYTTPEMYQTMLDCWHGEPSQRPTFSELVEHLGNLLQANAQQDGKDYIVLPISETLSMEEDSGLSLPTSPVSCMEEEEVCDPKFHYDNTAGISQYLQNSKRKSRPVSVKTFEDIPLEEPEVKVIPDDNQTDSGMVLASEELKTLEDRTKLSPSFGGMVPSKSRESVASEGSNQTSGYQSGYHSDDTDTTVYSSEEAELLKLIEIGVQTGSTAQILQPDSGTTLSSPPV

[6] = target: T3, 5-hydroxytryptamine receptor 1A (Homo sapiens, UniProt P08908)
T3 sequence (P08908 whole entry): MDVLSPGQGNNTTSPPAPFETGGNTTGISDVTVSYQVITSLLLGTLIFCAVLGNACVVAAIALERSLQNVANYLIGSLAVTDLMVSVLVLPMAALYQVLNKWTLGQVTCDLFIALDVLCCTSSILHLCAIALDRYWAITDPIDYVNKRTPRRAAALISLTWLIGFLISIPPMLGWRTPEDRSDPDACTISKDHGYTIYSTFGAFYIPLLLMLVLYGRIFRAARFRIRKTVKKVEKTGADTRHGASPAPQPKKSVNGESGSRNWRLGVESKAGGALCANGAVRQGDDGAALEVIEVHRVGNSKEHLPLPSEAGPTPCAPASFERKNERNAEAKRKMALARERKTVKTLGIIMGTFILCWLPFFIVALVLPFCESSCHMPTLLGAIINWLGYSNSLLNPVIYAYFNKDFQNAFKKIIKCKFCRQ

Mu-type opioid receptor = Mu-type opioid receptor (Homo sapiens, UniProt P35372)
Mu-type opioid receptor, sequence (P35372 whole entry): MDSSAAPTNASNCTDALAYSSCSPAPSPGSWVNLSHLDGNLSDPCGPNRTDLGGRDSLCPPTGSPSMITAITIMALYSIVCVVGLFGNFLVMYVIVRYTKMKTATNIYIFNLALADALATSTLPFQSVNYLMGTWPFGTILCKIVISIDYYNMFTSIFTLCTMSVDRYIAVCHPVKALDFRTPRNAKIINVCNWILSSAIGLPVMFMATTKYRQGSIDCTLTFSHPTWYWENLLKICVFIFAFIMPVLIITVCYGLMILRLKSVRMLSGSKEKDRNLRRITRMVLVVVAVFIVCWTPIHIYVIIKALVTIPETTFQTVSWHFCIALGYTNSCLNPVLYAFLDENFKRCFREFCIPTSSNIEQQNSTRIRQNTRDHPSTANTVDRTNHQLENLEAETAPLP

[7] = target: T4, Neuropeptide Y receptor type 1 (Homo sapiens, UniProt P25929)
T4 sequence (P25929 whole entry): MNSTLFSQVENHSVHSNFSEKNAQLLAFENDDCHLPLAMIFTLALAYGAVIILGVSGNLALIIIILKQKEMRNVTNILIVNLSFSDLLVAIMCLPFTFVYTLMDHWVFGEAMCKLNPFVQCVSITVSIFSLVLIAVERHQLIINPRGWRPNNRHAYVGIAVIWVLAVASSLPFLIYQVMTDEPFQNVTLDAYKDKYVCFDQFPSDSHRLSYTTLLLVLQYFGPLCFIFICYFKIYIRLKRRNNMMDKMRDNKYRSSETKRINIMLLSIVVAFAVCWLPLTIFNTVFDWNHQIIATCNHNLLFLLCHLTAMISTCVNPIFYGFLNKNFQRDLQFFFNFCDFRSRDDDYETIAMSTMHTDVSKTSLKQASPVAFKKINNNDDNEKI

[8] = target: T5, Alpha-2B adrenergic receptor (Homo sapiens, UniProt P18089)
T5 sequence (P18089 whole entry): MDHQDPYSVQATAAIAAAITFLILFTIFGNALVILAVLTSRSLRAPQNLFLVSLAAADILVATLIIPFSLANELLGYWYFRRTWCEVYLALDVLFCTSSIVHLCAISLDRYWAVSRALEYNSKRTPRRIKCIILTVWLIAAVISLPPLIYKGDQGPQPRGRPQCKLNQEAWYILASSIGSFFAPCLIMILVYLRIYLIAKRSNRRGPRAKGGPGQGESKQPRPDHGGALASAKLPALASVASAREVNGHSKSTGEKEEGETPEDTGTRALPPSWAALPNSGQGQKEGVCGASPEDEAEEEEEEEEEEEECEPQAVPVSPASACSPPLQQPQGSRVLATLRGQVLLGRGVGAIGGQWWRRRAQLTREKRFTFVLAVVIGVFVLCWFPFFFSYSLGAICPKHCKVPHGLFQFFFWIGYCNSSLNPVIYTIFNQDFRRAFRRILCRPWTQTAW

[9] = target: 5-hydroxytryptamine receptor 2A (Homo sapiens, UniProt P28223); assay type: functional, cell-based
5-hydroxytryptamine receptor 2A, sequence (P28223 whole entry): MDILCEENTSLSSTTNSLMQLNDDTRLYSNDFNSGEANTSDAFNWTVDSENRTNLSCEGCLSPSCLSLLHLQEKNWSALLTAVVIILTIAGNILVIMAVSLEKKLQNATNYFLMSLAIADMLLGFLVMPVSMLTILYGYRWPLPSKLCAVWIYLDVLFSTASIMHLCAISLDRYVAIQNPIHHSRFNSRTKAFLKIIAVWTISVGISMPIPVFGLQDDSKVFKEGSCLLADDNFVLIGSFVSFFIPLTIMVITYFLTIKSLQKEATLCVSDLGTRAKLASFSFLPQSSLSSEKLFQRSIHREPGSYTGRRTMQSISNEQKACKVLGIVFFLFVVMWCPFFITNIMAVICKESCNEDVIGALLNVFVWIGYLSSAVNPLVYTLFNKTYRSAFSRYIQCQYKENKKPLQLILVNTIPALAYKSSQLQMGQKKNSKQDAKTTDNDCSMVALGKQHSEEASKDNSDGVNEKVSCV

Measured: AC50
Also: assay procedure not described here.

Prostaglandin G/H synthase 1, sequence (P23219 whole entry): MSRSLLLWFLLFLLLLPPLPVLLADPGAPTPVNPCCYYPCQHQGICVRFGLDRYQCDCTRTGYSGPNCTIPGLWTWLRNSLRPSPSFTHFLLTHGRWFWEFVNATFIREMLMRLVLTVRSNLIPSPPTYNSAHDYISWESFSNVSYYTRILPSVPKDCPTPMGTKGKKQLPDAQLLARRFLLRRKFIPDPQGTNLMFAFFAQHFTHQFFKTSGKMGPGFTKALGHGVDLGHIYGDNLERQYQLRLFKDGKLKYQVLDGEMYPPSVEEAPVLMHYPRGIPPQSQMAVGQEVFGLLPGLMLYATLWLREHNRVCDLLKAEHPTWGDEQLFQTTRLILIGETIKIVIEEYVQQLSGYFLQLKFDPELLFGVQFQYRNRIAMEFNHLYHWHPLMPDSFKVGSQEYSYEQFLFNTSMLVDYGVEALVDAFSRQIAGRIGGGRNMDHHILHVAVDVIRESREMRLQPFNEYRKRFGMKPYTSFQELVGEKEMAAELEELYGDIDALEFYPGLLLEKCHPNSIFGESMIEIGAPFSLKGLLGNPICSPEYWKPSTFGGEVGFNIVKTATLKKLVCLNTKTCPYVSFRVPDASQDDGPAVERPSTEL
Sodium-dependent noradrenaline transporter, sequence (P23975 whole entry): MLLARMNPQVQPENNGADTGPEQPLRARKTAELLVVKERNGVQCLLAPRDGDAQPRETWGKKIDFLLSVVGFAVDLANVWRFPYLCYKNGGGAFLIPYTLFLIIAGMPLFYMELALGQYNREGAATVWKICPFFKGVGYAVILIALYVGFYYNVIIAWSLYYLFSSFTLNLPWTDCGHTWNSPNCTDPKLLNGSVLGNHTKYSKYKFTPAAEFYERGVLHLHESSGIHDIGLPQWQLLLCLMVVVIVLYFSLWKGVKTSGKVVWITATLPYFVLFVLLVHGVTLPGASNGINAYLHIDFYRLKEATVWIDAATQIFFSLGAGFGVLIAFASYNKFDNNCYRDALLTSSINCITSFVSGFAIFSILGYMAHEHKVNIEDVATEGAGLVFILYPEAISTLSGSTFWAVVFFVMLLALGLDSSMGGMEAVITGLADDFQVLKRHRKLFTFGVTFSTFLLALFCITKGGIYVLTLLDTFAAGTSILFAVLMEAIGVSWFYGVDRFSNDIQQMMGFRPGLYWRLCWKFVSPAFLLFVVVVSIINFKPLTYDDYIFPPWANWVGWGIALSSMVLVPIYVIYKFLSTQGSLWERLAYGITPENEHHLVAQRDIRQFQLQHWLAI

CCOC(=O)[C@H](CCc1ccccc1)N[C@@H](C)C(=O)N1Cc2ccccc2C[C@H]1C(=O)O
> 10 µM: Histamine H2 receptor | Histamine H3 receptor | Cannabinoid receptor 1 | Mu-type opioid receptor
not listed: [8] | [9]
> 30 µM: all other assays above

CN(C)CCN(Cc1ccccc1)c1ccccn1 [TRIPELENNAMINE]
2.62 µM: [1]
11 µM: [8]
7.3 µM: [9]
> 10 µM: Histamine H2 receptor | Thromboxane A2 receptor [4] | Cannabinoid receptor 1 | [7]
not listed: Histamine H3 receptor
> 30 µM: all other assays above

Cc1c(C)c2c(c(C)c1O)CCC(C)(COc1ccc(CC3SC(=O)NC3=O)cc1)O2 (configuration not stated) [TROGLITAZONE]
4.11 µM: [1]
25.7 µM: [6]
17.6 µM: Thromboxane A2 receptor [3]
not listed: [8] | [9]
> 30 µM: all other assays above
